Measurements published in paper PMC3561686 (Basic & Clinical Pharmacology & Toxicology, 2012).
Like-named read-outs stand apart in the source and are kept apart here.

Tests used:
[1] = read-out: expected Cmax; after a 100 mg dose; cited from earlier work
human liver microsomes = conditions: cited from earlier work
[2] = for Cmax: human, in vivo, prasugrel alone session, dried blood spots, mean (S.D.); for AUC ratio (prasugrel + ritonavir versus prasugrel alone): AUC0–6 hr; for AUC ratio (prasugrel + ritonavir versus prasugrel alone) / Cmax ratio (prasugrel + ritonavir versus prasugrel alone): mean ratio
CYP3A = conditions: cited from earlier work
CYP2C9 = CYP2C9 (Homo sapiens, UniProt P11712); conditions: mean ratio
Chain of CYP2C9 (P11712 whole entry): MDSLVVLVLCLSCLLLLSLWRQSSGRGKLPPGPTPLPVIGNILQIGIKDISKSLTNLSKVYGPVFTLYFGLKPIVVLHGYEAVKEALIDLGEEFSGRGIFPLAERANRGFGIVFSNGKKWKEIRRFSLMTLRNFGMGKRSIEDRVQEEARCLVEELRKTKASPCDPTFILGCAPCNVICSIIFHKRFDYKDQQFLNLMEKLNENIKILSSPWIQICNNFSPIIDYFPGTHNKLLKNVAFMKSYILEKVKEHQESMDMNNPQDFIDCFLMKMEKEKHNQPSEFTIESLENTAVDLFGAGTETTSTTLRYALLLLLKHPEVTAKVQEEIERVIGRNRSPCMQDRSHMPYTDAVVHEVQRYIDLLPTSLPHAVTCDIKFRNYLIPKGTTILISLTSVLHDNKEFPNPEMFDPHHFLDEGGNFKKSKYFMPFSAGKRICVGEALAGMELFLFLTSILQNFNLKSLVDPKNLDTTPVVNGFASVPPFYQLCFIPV

CYP2C19 = CYP2C19 (Homo sapiens, UniProt P33261); assay: CYP2C19 phenotyping: omeprazole metabolic ratio in plasma; format: in vivo; conditions: mean ratio
Chain of CYP2C19 (P33261 whole entry): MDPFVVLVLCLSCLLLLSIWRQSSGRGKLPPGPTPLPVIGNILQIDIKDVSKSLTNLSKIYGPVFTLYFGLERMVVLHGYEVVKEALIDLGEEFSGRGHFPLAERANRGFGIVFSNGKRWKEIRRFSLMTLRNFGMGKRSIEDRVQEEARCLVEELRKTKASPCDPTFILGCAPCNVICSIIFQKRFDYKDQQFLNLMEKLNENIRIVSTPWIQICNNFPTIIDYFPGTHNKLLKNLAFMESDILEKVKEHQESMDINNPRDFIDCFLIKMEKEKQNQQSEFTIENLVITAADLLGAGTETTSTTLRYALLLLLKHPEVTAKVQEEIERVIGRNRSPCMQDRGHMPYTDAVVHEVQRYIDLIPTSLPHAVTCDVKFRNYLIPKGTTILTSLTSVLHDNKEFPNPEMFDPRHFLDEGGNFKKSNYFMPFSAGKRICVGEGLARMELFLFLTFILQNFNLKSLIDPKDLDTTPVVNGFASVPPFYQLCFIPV

Row | SMILES | Cmax [2] | AUC ratio (prasugrel + ritonavir versus prasugrel alone) [2] | Cmax ratio (prasugrel + ritonavir versus prasugrel alone) [2] | other results
1 | CC(C)c1nc(CN(C)C(=O)N[C@H](C(=O)N[C@@H](Cc2ccccc2)C[C@H](O)[C@H](Cc2ccccc2)NC(=O)OCc2cncs2)C(C)C)cs1 [ritonavir] | – | – | – | Cmax [1]: 1000 to 2000 nM; Inhibition of prasugrel bioactivation (human liver microsomes): potent inhibitor
2 | CC(NC(C)(C)C)C(=O)c1cccc(Cl)c1 (centres unmarked) [Bupropion, bupropion] | 20.9 ng/mL | – | – | –
3 | CC(=O)N1CCN(c2ccc(OCC3COC(Cn4ccnc4)(c4ccc(Cl)cc4Cl)O3)cc2)CC1 (centres unmarked) [ketoconazole] | – | – | – | Change in prasugrel AM formation or the inhibition of platelet aggregation when prasugrel was administered with the drug (CYP3A): no change
4 | CC(C(=O)O)c1ccc(-c2ccccc2)c(F)c1 (centres unmarked) [Flurbiprofen, flurbiprofen] | 1140 ng/mL | 0.95 | 0.98 | Metabolic Ratio (OH flurbiprofen/flurbiprofen), ratio prasugrel + ritonavir versus prasugrel alone (CYP2C9): not affected
5 | COc1ccc2[nH]c([S+]([O-])Cc3ncc(C)c(OC)c3C)nc2c1 (centres unmarked) [Omeprazole, omeprazole] | 35.6 ng/mL | 1.25 | 1.54 | Metabolic Ratio (OH omeprazole/omeprazole), ratio prasugrel + ritonavir versus prasugrel alone (CYP2C19): not affected
6 | Cc1ncc2n1-c1ccc(Cl)cc1C(c1ccccc1F)=NC2 [Midazolam, midazolam] | 0.17 ng/mL | 26.5 | 6.1 | AUC ratio (prasugrel + ritonavir versus prasugrel alone) ([2]; listed as midazolam): 26; Cmax ratio (prasugrel + ritonavir versus prasugrel alone) ([2]; listed as midazolam): 6
